Source: ChEMBL document CHEMBL1201862, “PubChem BioAssay data set” (2004)
“And” between values parts separate entries of the source, which are not always exact repeats. Identical values can stand only once.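 A five-concentration, 48-hour dose response in 96-well plates underlies each endpoint, interpolated linearly between surrounding concentrations. GI50 = concentration required for 50% inhibition of growth.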 The source made the active and inactive calls. Rule as the data show it: active = GI50 up to about 1.1 µM and inactive = higher.

Tests used:
Assay in all cases: NCI-60 cell line screen, 48 h
786-0 = system: 786-0
A498 = system: A498
A549 = system: A549
ACHN = system: ACHN
BT-549 = system: BT-549
CAKI-1 = system: CAKI-1
CCRF-CEM = system: CCRF-CEM
COLO 205 = system: COLO 205
DU-145 = system: DU-145
EKVX = system: EKVX
HCC 2998 = system: HCC 2998
HCT-116 = system: HCT-116
HCT-15 = system: HCT-15
HL-60 = system: HL-60
HOP-62 = system: HOP-62
HOP-92 = system: HOP-92
HT-29 = system: HT-29
Hs-578T = system: Hs-578T
IGROV-1 = system: IGROV-1
K562 = system: K562
KM12 = system: KM12
LOX IMVI = system: LOX IMVI
M14 = system: M14
MCF7 = system: MCF7
MDA-MB-231 = system: MDA-MB-231
MDA-MB-435 = system: MDA-MB-435
MDA-N = system: MDA-N
MOLT-4 = system: MOLT-4
Malme-3M = system: Malme-3M
NCI-H226 = system: NCI-H226
NCI-H23 = system: NCI-H23
NCI-H460 = system: NCI-H460
NCI-H522 = system: NCI-H522
NCI/ADR-RES = system: NCI/ADR-RES
OVCAR-3 = system: OVCAR-3
OVCAR-4 = system: OVCAR-4
OVCAR-5 = system: OVCAR-5
OVCAR-8 = system: OVCAR-8
PC-3 = system: PC-3
RPMI-8226 = system: RPMI-8226
RXF 393 = system: RXF 393
SF-268 = system: SF-268
SF-295 = system: SF-295
SF-539 = system: SF-539
SK-MEL-28 = system: SK-MEL-28
SK-MEL-2 = system: SK-MEL-2
SK-MEL-5 = system: SK-MEL-5
SK-OV-3 = system: SK-OV-3
SN12C = system: SN12C
SNB-19 = system: SNB-19
SNB-75 = system: SNB-75
SR = system: SR
SW-620 = system: SW-620
T47D = system: T47D
TK-10 = system: TK-10
U-251 = system: U-251
UACC-257 = system: UACC-257
UACC-62 = system: UACC-62
UO-31 = system: UO-31
DLD-1 = system: DLD-1
DMS-114 = system: DMS-114
DMS-273 = system: DMS-273
LXFL 529 = system: LXFL 529
M19-MEL = system: M19-MEL
XF498 = system: XF498
KM-20L2 = system: KM-20L2

Measured: GI50

COc1nc(N)c(/N=C/C(OC(C)=O)C(OC(C)=O)C(COC(C)=O)OC(C)=O)c(=O)n1C (stereo not given)
> 100 µM: HCT-15
inactive: 786-0 > 100 µM | A498 > 100 µM | A549 > 100 µM | ACHN > 100 µM | BT-549 > 100 µM | CAKI-1 > 100 µM | CCRF-CEM > 100 µM and 62.2 µM | COLO 205 > 100 µM | DU-145 > 100 µM | EKVX > 100 µM | HCC 2998 > 100 µM | HCT-116 > 100 µM | HL-60 > 100 µM | HOP-62 > 100 µM | HOP-92 > 100 µM | HT-29 > 100 µM | Hs-578T > 100 µM | IGROV-1 > 100 µM | K562 > 100 µM | KM12 > 100 µM | LOX IMVI > 100 µM | M14 > 100 µM | MCF7 > 100 µM | MDA-MB-231 > 100 µM | MDA-MB-435 > 100 µM | MDA-N > 100 µM | MOLT-4 > 100 µM | Malme-3M > 100 µM | NCI-H226 > 100 µM | NCI-H23 > 100 µM | NCI-H460 > 100 µM | NCI-H522 > 100 µM | NCI/ADR-RES > 100 µM | OVCAR-3 > 100 µM | OVCAR-4 > 100 µM | OVCAR-5 > 100 µM | OVCAR-8 > 100 µM | PC-3 > 100 µM | RPMI-8226 > 100 µM | RXF 393 > 100 µM | SF-268 > 100 µM | SF-295 > 100 µM | SF-539 > 100 µM | SK-MEL-28 > 100 µM | SK-MEL-2 > 100 µM | SK-MEL-5 > 100 µM | SK-OV-3 > 100 µM | SN12C > 100 µM | SNB-19 > 100 µM | SNB-75 > 100 µM | SR > 100 µM | SW-620 > 100 µM | T47D > 100 µM | TK-10 > 100 µM | U-251 > 100 µM | UACC-257 > 100 µM | UACC-62 > 100 µM | UO-31 > 100 µM

COC(=O)/C(=C/CC(N=C(c1ccccc1)c1ccccc1)C(=O)OC)N=C(c1ccccc1)c1ccccc1 (stereo not given)
> 100 µM: HCT-15
inactive: 786-0 > 100 µM | A549 > 100 µM | ACHN > 100 µM | CAKI-1 > 100 µM | CCRF-CEM > 100 µM | COLO 205 > 100 µM | DLD-1 > 100 µM | DMS-114 15.1 µM | DMS-273 > 100 µM | EKVX > 100 µM | HCC 2998 > 100 µM | HCT-116 > 100 µM | HL-60 > 100 µM | HOP-62 > 100 µM | HT-29 > 100 µM | IGROV-1 > 100 µM | K562 > 100 µM | KM12 > 100 µM | LOX IMVI > 100 µM | LXFL 529 > 100 µM | M14 > 100 µM | M19-MEL > 100 µM | MOLT-4 > 100 µM | Malme-3M > 100 µM | NCI-H23 > 100 µM | NCI-H460 > 100 µM | NCI-H522 38.5 µM | OVCAR-3 > 100 µM | OVCAR-4 > 100 µM | OVCAR-8 > 100 µM | RPMI-8226 79.3 µM | RXF 393 26.1 µM | SF-268 > 100 µM | SF-295 > 100 µM | SK-MEL-28 > 100 µM | SK-MEL-2 > 100 µM | SK-MEL-5 > 100 µM | SK-OV-3 39 µM | SN12C > 100 µM | SNB-19 > 100 µM | SNB-75 12.4 µM | SR > 100 µM | SW-620 > 100 µM | TK-10 > 100 µM | U-251 > 100 µM | UACC-257 > 100 µM | UACC-62 > 100 µM | UO-31 45.9 µM | XF498 > 100 µM

COc1ccc(/C=C\c2cc(OC)c(OC)c(OC)c2)cc1O
inactive: BT-549 23.9 µM | COLO 205 2.9 µM | EKVX 14.7 µM | HT-29 3.84 µM | KM-20L2 2.01 µM | OVCAR-5 5.43 µM | TK-10 56.9 µM
active: IGROV-1 < 0.02 µM

C[C@@H]1C[C@H]2[C@@H]3CCC4=CC(=O)C=C[C@]4(C)[C@@]3(F)[C@@H](O)C[C@]2(C)[C@@]1(O)C(=O)CO [DEXAMETHASONE]
inactive: 786-0 > 100 µM | A549 > 100 µM | ACHN > 100 µM | CAKI-1 > 100 µM | COLO 205 > 100 µM | DLD-1 > 100 µM | DMS-114 95.9 µM | EKVX 83.6 µM | HCT-116 > 100 µM | HL-60 > 100 µM | HOP-62 > 100 µM | HOP-92 > 100 µM | HT-29 > 100 µM | IGROV-1 > 100 µM | K562 > 100 µM | KM-20L2 > 100 µM | KM12 > 100 µM | LOX IMVI > 100 µM | LXFL 529 > 100 µM | M14 > 100 µM | M19-MEL > 100 µM | MOLT-4 95.1 µM | Malme-3M > 100 µM | NCI-H226 > 100 µM | NCI-H23 > 100 µM | NCI-H522 > 100 µM | OVCAR-3 > 100 µM | OVCAR-4 > 100 µM | OVCAR-5 > 100 µM | OVCAR-8 > 100 µM | SK-MEL-28 > 100 µM | SK-MEL-2 > 100 µM | SK-MEL-5 > 100 µM | SK-OV-3 > 100 µM | SR 49.3 µM | SW-620 > 100 µM | TK-10 > 100 µM | UACC-257 > 100 µM | UACC-62 > 100 µM | UO-31 > 100 µM
active: CCRF-CEM 0.0239 µM | SN12C < 0.01 µM
> 100 µM: HCT-15
